Data as given in article PMC5478869, “New Hydroxycinnamic Acid Esters as Novel 5-Lipoxygenase Inhibitors That Affect Leukotriene Biosynthesis” (Mediators of Inflammation, 2017).

Key:
arachidonic acid release = details: cited from earlier work
PMNL = assay: Annexin V labelling of PMNL (early apoptosis); format: cell-based, human; details: 20 min incubation at 37°C
Excerpt: A positive control with 10% EtOH is shown to validate the assay.

Row | SMILES | Inhibition of liberation of cellular arachidonic acid (previously shown) (arachidonic acid release) | Induction of early apoptosis of PMNL (annexin V labelling) (PMNL)
1 | O=C(/C=C/c1ccc(O)c(O)c1)OCCc1ccccc1 [CAPE (2), Caffeic acid phenethyl ester, reference compound] | previously shown to inhibit the liberation of cellular arachidonic acid | –
2 | O=C(/C=C/c1ccc(O)c(O)c1)OCCCc1ccccc1 [Compound 13] | – | did not induce early apoptosis of PMNL
